Results from patent US7387779B2, “Anti-angiogenic proteins and fragments and methods of use thereof” (Beth Israel Deaconess Medical Center, priority 1998, dated 2008).

Assays:
[1] = tested on: PC3 tumor xenografts; test: PC3 human prostate tumor xenograft (Example 58); type: in vivo, nude NCRNU mice; conditions: 5.0 mg/kg i.p. daily, 3 weeks; for Final Tumor Weight (V/Vo) ± SEM: T7 vehicle 5.626 ± 0.38, T8 vehicle 6.278 ± 1.483
Protocol: Male nude NCRNU mice, 5-6 weeks old, weighing approximately 25 grams, 6 were implanted with 2×10^6 PC3 cells into the dorsal subcutis. When the tumors were 60 mm^3, the animals were pair-matched into treatment and control groups. Each group contained 6-7 tumored mice, each of which was ear-tagged and followed individually throughout the experiment. Initial doses of peptide or vehicle control were given on the day of pair-matching (Day 0), and were administered via intraperitoneal (i.p.) injection at doses indicated. Mice were weighed weekly, and tumor measurements were taken by calipers weekly. These tumor measurements were converted to tumor volume by a well-known formula, (V=W^2×L/2), and mean tumor volumes were plotted against time. Mice were euthenized at the end of the treatment period. Upon termination, the mice were weighed, sacrificed and their tumors were excised. The mean tumor weight per group was calculated, and the value of mean treated tumor volume or volume ratio/mean control tumor volume or volume ratio×100 was subtracted from 100% to give the tumor growth inhibition (TG1) for each group. All groups received injections I.P. daily, except for two T8-treated groups, which were treated twice per week and once a week, respectively.

[2] = tested on: C-PAE cells; test: Cell attachment assay; type: cell-based, bovine; conditions: for attachment of endothelial cells onto vitronectin-coated plates in the presence of peptide: 5 μg/ml
Protocol: (§1) The attachment of HUVECs to Tumstatin-coated plates in the presence of integrin subunits α1 through α6, β1, and αvβ3 integrin blocking antibody was examined. This assay was performed according to the method of Senger et al. (Senger, D. R. et al, 1997, Proc. Natl. Acad. Sci. USA 94:13612-7), with minor modification. 96-well plates were coated with either human Tumstatin, mouse laminin-1, or human Type IV collagen (Collaborative Biomedical Prods., Bedford, Mass., USA) at a concentration of 10 μg/ml overnight at 37° C. Vitronectin (Collaborative Biomed. Prods.) at a concentration of 0.5 μg/ml was then used to coat the plates. The remaining protein binding sites were blocked with 100 mg/ml of BSA (Sigma Chemical Co., St. Louis, Mo., USA) in PBS for 2 hours. HUVEC cells were grown to subconfluence (70-80%) in EGM-2 medium, gently trypsinized and resuspended in serum-free medium (1.5×10^5 cells/ml). The cells were mixed with 10 μg/ml of either mouse IgG, (control) (Life Technologies/Gibco BRL, Gaithersberg, Md., USA) or antibody (mouse monoclonal antibody to the human β1 integrin (clone P4C10) (Life Technologies/Gibco BRL); monoclonal antibody to human integrins α1 through α.6 (CHEMICON Int'l, Temecula, Calif., USA); αvβ3 integrin (clone LM609) (CHEMICON Int'l) and incubated for 15 minutes at room temperature, with gentle agitation. One hundred microliters of the cell suspension was then added to each well and incubated for 45 minutes at 37° C. Unattached cells were removed by washing, and the number of attached cells were counted after staining with methylene blue. C-PAE cells were used in separate experiments, following the above procedure.
To determine the attachment of C-PAE cells to plates coated with the Tumstatin deletion mutants, the cell attachment assay was performed as described above (see, e.g., Example 28). Rabbit antibody raised against Tum-4 was prepared as previously described (Kalluri et al., 1997, J. Clin. Invest. 99:2470-8). Goat anti-rabbit IgG antibody conjugated with horseradish peroxidase was purchased from Sigma Chemical Company (St. Louis, Mo., USA). […] Plates coated with Tum-1 (FIG. 36A) were also treated with anti-Tum-4 antibody (1:200 dilution) to block the previously reported (Shahan et al, 1999, Cancer Res. 59:4584-90) αvβ3 binding site, as well as the αvβ5 binding site.
(§2) Cell Attachment Activity: Cell attachment using endothelial cells was performed as described above. HUVEC or C-PAE cells were incubated with monoclonal anti-human integrin antibodies, control mouse IgG (10 μg/ml), or synthetic peptide, plated onto pre-coated 96-well plates, and the number of cells attaching to the plates was determined using measurement of methylene blue staining at OD655. […] CNGRC peptide was used as a control.
(§3) The cell attachment assay was performed as described above.
Tumstatin produced in 293 human embryonic kidney cells was used to coat tissue culture plates. […] PBS and BSA served as positive and negative controls, respectively.

[3] = tested on: C-PAE cells; test: Cell cycle analysis (propidium iodide, flow cytometry); type: cell-based, bovine
Protocol: To further evaluate the mechanism of T3 peptide on endothelial cell proliferation, the effect of T3 peptide on cell cycle progression was analyzed. In the growth arrested and contact inhibited cells (0 hour), 4.1% of cells were in S phase. […] This was true even at a maximal dosage of 100 μg/ml. The effect of the T3 peptide was dose-dependent, however, with the percentage of cells in S phase at 21.4% at 10 μg/ml, and 20.5% at 25 μg/ml. The percentage of cells in G0/G1 phase was 88.3% at 0 hour, 53.4% for the bFGF control, and 57.6%, 57.6% and 71.0% for treatments with T1, T6 and T3 peptide, respectively. […] Apoptotic Activity: Peptides T2, T3, T4, T5 and T6 (10 μg/ml concentration) were tested for their effect of viability of C-PAE cells using the MTT assay, as described in Examples 32 and 36 above. The results are shown in FIG. 43D, which is a histogram showing cell viability as measured at OD595 (y-axis), and treatments with the synthetic peptides (x-axis). […] TNF-α (100 ng/ml) was used to serve as a positive control in inducing endothelial cell apoptosis.
The effect of Tumstatin-44-131 and Tum-5-125-C-A on the cell cycle were assayed similarly to Example 4 above. Briefly, C-PAE cells were growth arrested by contact inhibition for 48 hours. The cells, at 10^5 cells per well, were then harvested and plated into a 12-well plate coated with fibronectin in 5% FCS and either recombinant Tumstatin-44-131 or Tum-5-125-C-A. After 21 hours, the cells were harvested and fixed in 70% ice-cold ethanol. The fixed cells were rehydrated a room temperature for 30 minutes in PBS containing 2% FCS and 0.1% Tween-20, centrifuged and resuspended in 0.5 ml of the same buffer. RNase (5 μg/ml) digestion was done at 37° C. for one hour, followed by staining with propidium iodide (5 μg/ml). The cells were then counted using an EPICS XL-MCL flow cytometer (Beckman-Coulter Instruments, Fullerton, Calif., USA).

[4] = tested on: C-PAE cells; test: Endothelial cell proliferation, methylene blue staining; type: cell-based, bovine; conditions: for inhibition of endothelial cell proliferation by synthetic peptides: 10 μg/ml, 20% FCS
Protocol: A methylene blue staining test was also done. 3,100 cells were added to each well and treated as above, and cells were then counted using the method of Oliver et al. (Oliver, M. H. et al., 1989, J. Cell. Science 92:513-18). All wells were washed one time with […] of 1×PBS and the cells were fixed by adding […] of 10% formalin in neutral-buffered saline (Sigma Chemical Co., St. Louis, Mo., USA) for 30 minutes at room temperature. After formalin removal cells were stained with a solution of 1% methylene blue (Sigma Chemical Co.) in 0.01 M borate buffer (pH 8.5) for 30 minutes at room temperature. After removal of staining solution, the wells were washed 5 times with […] of 0.01 M borate buffer (pH 8.5). Methylene blue was extracted from the cells with […] of 0.1N HCi/ethanol (1:1 mixture) for 1 hour at room temperature. The amount of methylene blue staining was measured on a microplate reader (BioRad, Hercules, Calif., USA) using light absorbance at 655 nm wavelength.
In the methylene-blue staining method, 7000 cells were plated into each well of a 96-well plate, and treated as described above. Cells were then counted using the method of Oliver et al. (1989, J. Cell. Sci. 92:513-8). After 48 hours of treatment, all wells were washed with 100 μl of PBS, and the cells fixed with 10% formalin in neutral-buffered saline (Sigma Chemical Co., St. Louis, Mo., USA). The cells were then stained with 1% methylene blue (Sigma) in 0.01M borate buffer, pH 8.5. Wells were washed with 0.01M borate buffer, and the methylene blue extracted from the cells with 0.1N HCl/ethanol, and the absorbance measured in a microplate reader (Bio-Rad, Hercules, Calif., USA) at 655 nm. Polymyxin B (Sigma) at a final concentration of 5 μg/ml was used to inactivate endotoxin (Liu, S. et al., 1997, Clin. Biochem. 30:455-63).
Proliferation of endothelial cells (C-PAE cells) and WM-164 melanoma cells was assayed by methylene blue staining, as described above in Examples 25 and 34. The results are shown in FIGS. 33A and 33B, which are a pair of graphs showing the effect of increasing concentration (x-axis) of Tumstatin, Tum-1, Tum-2, Tum-3 and Tum-4 on the relative number (y-axis) of C-PAE cells (FIG. 33A) and WM-164 cells (FIG. 33B). […] Tum-4, however, did have anti-proliferative activity in this cell line. […] Only Tum-4 inhibited WM-164 melanoma cells.
For the proliferation assay, Canstatin, Can-1 and Can-2 soluble proteins (0.1-20.0 μg/ml) were added to the growth medium of proliferating C-PAE cells, which were stimulated with 10% FBS in DMEM, in addition to 5 ng/ml bFGF and 3 ng/ml VEGF. The results are shown in FIG. 40, which is a graph showing the effect of increasing concentrations of Canstatin (♦), Can-1 (▪) and Can-2 (▴) (x-axis) on the relative cell number (y-axis) of C-PAE cells. Each concentration of each protein was tested in quadruplicate. Bovine serum albumin (BSA) was used as a control treatment. Polymyxin B was used to control for endotoxin interference, and no differences were found between assays run with and without polymyxin B added to the medium. Cells were allowed to proliferate for 48 hours, and were then fixed, stained and the density read with a Bio-Rad plate reader (Bio-Rad, Hercules, Calif., USA). Canstatin and Can-1 both caused dose-dependent decreases in the percent cell number, and both reduced the number of cells by 80% at concentrations of 5 μg/ml and higher.
An endothelial cell proliferation assay was used to compare the activity of Tumstatin and some of the deletion mutants. Recombinant Tumstatin (28 kDa), Tumstatin-44-131 (12 kDa) and T3 peptide were used in a methylene blue proliferation assay in equimolar concentrations.

[5] = tested on: HUVEC cells; test: Cell adhesion assay with integrin blocking antibodies; type: cell-based, human; conditions: label = plate coating; 10 μg/ml antibody
Protocol: as §1, §2, §3

ANMSRNVFFDCTSFPVCQKFLNDTRNY (Scrambled peptide SP1) [reference compound]
% Tumor growth inhibition [1]: 31.7% | Final Tumor Weight (V/Vo) ± SEM [1]: 4.284 ± 1.244

RALEPYISRCTVCEGPAIA (T6 (amino acids 113-131 of SEQ ID NO10))
binding to vitronectin-coated plates (2.5 μg/ml) in the presence of peptide ([2]; 0.1, 1.0, 10.0 μg/ml peptide): did not inhibit attachment | percentage of cells in S phase ([3]; bFGF 24 hours (control 22.1%), T1 or T6, maximal dosage of 100 μg/ml): 21.2% | percentage of cells in G0/G1 phase ([3]; bFGF control 53.4%): 57.6%

NQRAHGQDLGTLGSCLQRFT (T2 (amino acids 53-72 of SEQ ID NO10))
inhibition of endothelial cell proliferation by synthetic peptides [4]: nor did it inhibit endothelial cell proliferation

TMPFLFCNVNDVCNFASRNDYSYWL [T7]
% Tumor growth inhibition [1]: 66.8% | Final Tumor Weight (V/Vo) ± SEM [1]: 1.868 ± 0755 | EC50 ([4]; equimolar comparison, read-out: ED50, anti-proliferative effect): 1000 nM

CDCRGDCFC (synthetic blocking peptide) [reference compound]
attachment of endothelial cells onto vitronectin-coated plates in the presence of peptide [2]: inhibited attachment

DVCNFASRNDYSYWLSTPAL (T4 (amino acids 83-102 of SEQ ID NO10))
inhibition of endothelial cell proliferation by synthetic peptides [4]: no inhibitory activity

CNGRC (synthetic blocking peptide) [reference compound]
attachment of endothelial cells onto vitronectin-coated plates in the presence of peptide [2]: did not show such inhibition

laminin-1: mouse laminin-1, control plate coating [reference compound]
inhibition of HUVEC attachment to coated plates by α5 antibody [5]: 50% | inhibition of HUVEC attachment to coated plates by α6 antibody [5]: 89%

B1: Tum-5: residues 54 to 132 of Tumstatin (SEQ ID NO:26) (protein)
chain: QRAHGQDLGTLGSCLQRFTTMPFLFCNVNDVCNFASRNDYSYWLSTPALMPMNMAPITGRALEPYISRCTVCEGPAIAI
modifications: Tum-5 (amino acids 54-132 of SEQ ID NO10)
attachment to coated plates in the presence of RGD peptide ([…]) ([2]; label = plate coating): not inhibited | inhibition of HUVEC attachment to coated plates by αvβ3 antibody [5]: significantly inhibited

B2: vitronectin: control plate coating (protein)
chain: DQESCKGRCTEGFNVDKKCQCDELCSYYQSCCTDYTAECKPQVTRGDVFTMPEDEYTVYDDGEEKNNATVHEQVGGPSLTSDLQAQSKGNPEQTPVLKPEEEAPAPEVGASKPEGIDSRPETLHPGRPQPPAEEELCSGKPFDAFTDLKNGSLFAFRGQYCYELDEKAVRPGYPKLIRDVWGIEGPIDAAFTRINCQGKTYLFKGSQYWRFEDGVLDPDYPRNISDGFDGIPDNVDAALALPAHSYSGRERVYFFKGKQYWEYQFQHQPSQEECEGSSLSAVFEHFAMMQRDSWEDIFELLFWGRTSAGTRQPQFISRDWHGVPGQVDAAMAGRIYISGMAPRPSLAKKQRFRHRNRKGYRSQRGHSRGRNQNSRRPSRATWLSLFSSEESNLGANNYDDYRMDWLVPATCEPIQSVFFFSGDKYYRVNLRTRRVDTVDPPYPRSIAQYWLGCPAPGHL
inhibition of HUVEC attachment to coated plates by αvβ3 antibody [5]: 61%
